Reference: article PMC8590616 (European Journal of Pharmacology, 2021)
“And” between values parts separate entries of the source, which are not always exact repeats. Equal entries are not always repeated. Where two headings read alike, the source gives them in different places.

How the values were obtained:
[1] = cited from earlier work
[2] = target: T1, hERG1 (Homo sapiens, UniProt Q12809); assay: Manual patch-clamp, standard 2-step hERG protocol at PT; assay type: cell-based
[3] = target: T2, hNav1.5 (Homo sapiens, UniProt Q14524); assay: Peak INa at PT, manual patch-clamp, HEK293 cells; assay type: cell-based; conditions: for INa peak Hill coefficient nH: PT
T2 sequence (Q14524 whole entry): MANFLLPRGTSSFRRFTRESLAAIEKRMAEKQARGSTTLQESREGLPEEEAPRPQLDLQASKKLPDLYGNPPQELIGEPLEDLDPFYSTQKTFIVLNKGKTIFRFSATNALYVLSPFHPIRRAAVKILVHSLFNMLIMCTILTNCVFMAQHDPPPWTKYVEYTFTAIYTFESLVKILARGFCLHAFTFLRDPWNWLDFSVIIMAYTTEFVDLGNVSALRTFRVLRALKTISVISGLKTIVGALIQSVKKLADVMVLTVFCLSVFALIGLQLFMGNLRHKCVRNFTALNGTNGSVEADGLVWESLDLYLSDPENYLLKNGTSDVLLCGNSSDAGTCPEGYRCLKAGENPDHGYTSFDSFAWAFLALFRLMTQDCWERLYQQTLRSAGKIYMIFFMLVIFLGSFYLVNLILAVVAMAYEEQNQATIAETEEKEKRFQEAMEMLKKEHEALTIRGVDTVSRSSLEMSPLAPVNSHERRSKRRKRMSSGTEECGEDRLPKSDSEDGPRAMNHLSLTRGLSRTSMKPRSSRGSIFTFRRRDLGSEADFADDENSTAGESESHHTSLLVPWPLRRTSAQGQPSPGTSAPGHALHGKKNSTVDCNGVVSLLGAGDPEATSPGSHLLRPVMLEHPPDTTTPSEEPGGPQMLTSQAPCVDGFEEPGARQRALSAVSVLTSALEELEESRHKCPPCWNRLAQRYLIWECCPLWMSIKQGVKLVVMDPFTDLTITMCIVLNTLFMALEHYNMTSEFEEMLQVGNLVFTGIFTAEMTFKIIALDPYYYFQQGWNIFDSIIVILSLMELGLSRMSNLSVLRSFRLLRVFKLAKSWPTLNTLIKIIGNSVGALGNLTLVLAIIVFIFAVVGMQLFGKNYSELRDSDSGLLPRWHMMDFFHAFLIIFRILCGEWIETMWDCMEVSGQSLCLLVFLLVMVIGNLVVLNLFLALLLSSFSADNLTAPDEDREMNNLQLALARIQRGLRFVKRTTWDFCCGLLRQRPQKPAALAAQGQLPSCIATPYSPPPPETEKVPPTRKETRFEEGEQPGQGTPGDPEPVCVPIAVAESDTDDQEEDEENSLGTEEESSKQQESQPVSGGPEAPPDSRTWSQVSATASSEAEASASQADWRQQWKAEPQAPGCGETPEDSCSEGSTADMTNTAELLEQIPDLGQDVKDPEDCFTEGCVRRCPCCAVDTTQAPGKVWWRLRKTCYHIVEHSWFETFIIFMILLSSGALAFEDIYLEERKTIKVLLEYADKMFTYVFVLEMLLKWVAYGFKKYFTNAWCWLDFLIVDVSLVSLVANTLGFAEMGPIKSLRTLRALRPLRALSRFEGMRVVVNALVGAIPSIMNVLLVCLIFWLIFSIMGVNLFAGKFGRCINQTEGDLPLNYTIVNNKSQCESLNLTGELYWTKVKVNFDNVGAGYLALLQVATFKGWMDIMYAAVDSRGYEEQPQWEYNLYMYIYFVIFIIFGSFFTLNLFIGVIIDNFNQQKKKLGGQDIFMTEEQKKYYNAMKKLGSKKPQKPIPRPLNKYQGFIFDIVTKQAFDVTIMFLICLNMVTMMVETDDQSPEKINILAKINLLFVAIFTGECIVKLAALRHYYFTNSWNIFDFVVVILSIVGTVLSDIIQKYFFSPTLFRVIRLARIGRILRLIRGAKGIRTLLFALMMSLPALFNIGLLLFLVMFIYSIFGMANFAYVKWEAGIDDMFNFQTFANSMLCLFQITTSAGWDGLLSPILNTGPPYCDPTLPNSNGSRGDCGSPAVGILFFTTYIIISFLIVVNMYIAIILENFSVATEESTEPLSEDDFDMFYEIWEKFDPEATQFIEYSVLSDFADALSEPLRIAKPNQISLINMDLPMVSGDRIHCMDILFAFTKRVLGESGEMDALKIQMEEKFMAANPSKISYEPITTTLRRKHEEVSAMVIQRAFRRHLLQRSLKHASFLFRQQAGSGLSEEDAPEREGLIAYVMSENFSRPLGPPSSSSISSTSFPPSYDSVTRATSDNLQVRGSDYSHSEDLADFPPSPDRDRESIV

[4] = target: hKv7.1+hMinK (Homo sapiens, UniProt P51787); assay: IKs double-step voltage protocol, HEK293 cells; assay type: cell-based; conditions: for effect on plateau IKs level: highest concentration applied (100 μM)
Sequence of hKv7.1+hMinK (P51787 whole entry): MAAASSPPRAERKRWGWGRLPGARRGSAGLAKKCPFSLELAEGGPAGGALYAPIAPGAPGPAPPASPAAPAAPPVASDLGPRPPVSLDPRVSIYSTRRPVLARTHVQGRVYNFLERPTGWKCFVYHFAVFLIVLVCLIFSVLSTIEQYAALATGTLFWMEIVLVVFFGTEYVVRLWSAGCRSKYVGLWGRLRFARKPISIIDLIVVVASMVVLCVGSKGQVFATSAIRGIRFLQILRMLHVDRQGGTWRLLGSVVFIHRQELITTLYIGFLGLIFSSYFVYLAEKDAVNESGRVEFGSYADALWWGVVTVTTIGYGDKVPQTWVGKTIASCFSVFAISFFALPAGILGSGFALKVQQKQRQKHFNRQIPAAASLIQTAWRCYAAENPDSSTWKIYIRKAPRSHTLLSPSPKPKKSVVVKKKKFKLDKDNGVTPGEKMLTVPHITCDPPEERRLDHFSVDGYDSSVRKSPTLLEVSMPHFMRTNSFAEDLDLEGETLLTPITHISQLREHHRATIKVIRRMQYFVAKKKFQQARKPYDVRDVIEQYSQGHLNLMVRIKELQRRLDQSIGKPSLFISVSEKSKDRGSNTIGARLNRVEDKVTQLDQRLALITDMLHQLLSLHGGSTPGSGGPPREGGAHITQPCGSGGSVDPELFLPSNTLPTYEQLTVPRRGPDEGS

[5] = system: peak voltage-dependent Na+ current (INa) in Pluricyte cardiomyocytes; assay: hiPSC-CM β-escin-perforated voltage-clamp: peak INa; assay type: cell-based; conditions: Homo sapiens, Cardiomyocyte; for IC50: read-out: peak INa IC50 in hiPSC-CM
[6] = system: peak L-type Ca2+ current (ICaL) in Pluricyte cardiomyocytes; assay: hiPSC-CM β-escin-perforated voltage-clamp: peak ICaL; assay type: cell-based; conditions: Homo sapiens, Cardiomyocyte; for IC50: read-out: ICaL IC50
[7] = system: hERG (peak IKr); assay: hiPSC-CM β-escin-perforated voltage-clamp: peak IKr; assay type: cell-based, human; conditions: human
[8] = system: peak hERG current (IKr) in Pluricyte cardiomyocytes; assay: as above; assay type: cell-based, human; conditions: 5 μM; hiPSC-CM; individual experiments and average ± SD
[9] = system: steady funny current (If) in Pluricyte cardiomyocytes; assay: hiPSC-CM β-escin-perforated voltage-clamp: steady funny current; assay type: cell-based; conditions: Homo sapiens, Cardiomyocyte, read-out: If IC50
[10] = system: IKr; conditions: read-out: IKr IC50, cited from earlier work
[11] = system: IKr; conditions: read-out: IKr IC50, cited from earlier work; remark: listed apart in the source
[12] = system: IKr; conditions: read-out: IKr IC50; Xenopus laevis oocytes ref Sánchez-Chapula et al. (2002); cited from earlier work
[13] = system: IKs; conditions: human atrial myocytes ref Borsini et al. (2012), cited from earlier work
[14] = system: IK1; conditions: read-out: IK1 IC50; HEK293 ref Noujaim et al. (2011); cited from earlier work
[15] = system: INa peak; conditions: read-out: INa peak IC50; HEK293 ref Jordaan et al. (2021); cited from earlier work
[16] = system: INa peak; conditions: read-out: INa peak IC50; cat Purkinje fibers ref Sánchez-Chapula et al. (2001); cited from earlier work
[17] = system: INa peak; conditions: human atrial myocytes ref Borsini et al. (2012), cited from earlier work
[18] = system: INa peak; conditions: read-out: INa peak IC50; CHO, PT ref Delaunois et al. (2021); cited from earlier work
[19] = system: INa late; conditions: read-out: INa late IC50, CHO, cited from earlier work
[20] = system: ICaL; conditions: read-out: ICaL IC50; HEK293 ref Jordaan et al. (2021); cited from earlier work
[21] = system: ICaL; conditions: read-out: ICaL IC50; CHO, RT ref Delaunois et al. (2021); cited from earlier work
[22] = system: ICaL; conditions: read-out: ICaL IC50; cat Purkinje fibers ref Sánchez-Chapula et al. (2001); cited from earlier work
[23] = system: Ito; conditions: read-out: Ito IC50; rat ventricular myocytes ref Wagner et al. (2010); cited from earlier work
[24] = system: If; conditions: read-out: If IC50, cited from earlier work
[25] = target: T2, hNav1.5; assay: Peak INa in presence of ATX-II 20 nM at RT, HEK293 cells; conditions: for IC50: INa peak IC50, hNav1.5, ATX-II 20 nM, Hill fit
[26] = target: T2, hNav1.5; assay: Late INa in presence of ATX-II 20 nM at RT, HEK293 cells; conditions: for IC50: INa late IC50, hNav1.5, ATX-II 20 nM, end of tail current at 0 mV
[27] = target: T1, hERG1; assay: Manual whole-cell patch-clamp, standard 2-step hERG protocol at RT, HEK293T; conditions: for Hill coefficient nH, hERG inhibition: manual patch-clamp, RT
[28] = target: T3, hKir2.1 (Homo sapiens, UniProt P63252); conditions: HEK-293T, read-out: IK1 (hKir2.1) IC50
T3 sequence (P63252 1-427): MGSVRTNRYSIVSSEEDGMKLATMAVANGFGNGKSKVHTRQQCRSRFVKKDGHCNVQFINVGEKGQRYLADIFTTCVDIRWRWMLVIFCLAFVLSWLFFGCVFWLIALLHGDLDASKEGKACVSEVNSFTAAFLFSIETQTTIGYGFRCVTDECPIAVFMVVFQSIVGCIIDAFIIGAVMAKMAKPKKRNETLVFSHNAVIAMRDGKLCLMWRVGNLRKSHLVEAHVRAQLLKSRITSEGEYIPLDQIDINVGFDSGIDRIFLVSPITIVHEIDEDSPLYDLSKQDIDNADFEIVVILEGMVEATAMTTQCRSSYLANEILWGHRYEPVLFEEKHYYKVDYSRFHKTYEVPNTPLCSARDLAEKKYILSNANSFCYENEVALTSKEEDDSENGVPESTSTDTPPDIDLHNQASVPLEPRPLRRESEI

[29] = target: T1, hERG1; assay: Automated patch-clamp; conditions: for Hill coefficient nH, hERG inhibition: automated patch-clamp, RT
[30] = system: IKr; conditions: cited from earlier work
[31] = system: ICaL; conditions: cited from earlier work
[32] = standard 12-compounds panel ref Dutta et al., (2017)
[33] = read-out: peak INa, % of control values
[34] = read-out: peak ICaL, % of control values
[35] = CHO, PT ref Delaunois et al. (2021)
[36] = CHO, PT ref TeBay et al. (2021)
[37] = HEK293, RT ref Delaunois et al. (2021)
[38] = 3 μM, guinea pig SAN cells ref Capel et al. (2015)

T1 sequence (Q12809 whole entry): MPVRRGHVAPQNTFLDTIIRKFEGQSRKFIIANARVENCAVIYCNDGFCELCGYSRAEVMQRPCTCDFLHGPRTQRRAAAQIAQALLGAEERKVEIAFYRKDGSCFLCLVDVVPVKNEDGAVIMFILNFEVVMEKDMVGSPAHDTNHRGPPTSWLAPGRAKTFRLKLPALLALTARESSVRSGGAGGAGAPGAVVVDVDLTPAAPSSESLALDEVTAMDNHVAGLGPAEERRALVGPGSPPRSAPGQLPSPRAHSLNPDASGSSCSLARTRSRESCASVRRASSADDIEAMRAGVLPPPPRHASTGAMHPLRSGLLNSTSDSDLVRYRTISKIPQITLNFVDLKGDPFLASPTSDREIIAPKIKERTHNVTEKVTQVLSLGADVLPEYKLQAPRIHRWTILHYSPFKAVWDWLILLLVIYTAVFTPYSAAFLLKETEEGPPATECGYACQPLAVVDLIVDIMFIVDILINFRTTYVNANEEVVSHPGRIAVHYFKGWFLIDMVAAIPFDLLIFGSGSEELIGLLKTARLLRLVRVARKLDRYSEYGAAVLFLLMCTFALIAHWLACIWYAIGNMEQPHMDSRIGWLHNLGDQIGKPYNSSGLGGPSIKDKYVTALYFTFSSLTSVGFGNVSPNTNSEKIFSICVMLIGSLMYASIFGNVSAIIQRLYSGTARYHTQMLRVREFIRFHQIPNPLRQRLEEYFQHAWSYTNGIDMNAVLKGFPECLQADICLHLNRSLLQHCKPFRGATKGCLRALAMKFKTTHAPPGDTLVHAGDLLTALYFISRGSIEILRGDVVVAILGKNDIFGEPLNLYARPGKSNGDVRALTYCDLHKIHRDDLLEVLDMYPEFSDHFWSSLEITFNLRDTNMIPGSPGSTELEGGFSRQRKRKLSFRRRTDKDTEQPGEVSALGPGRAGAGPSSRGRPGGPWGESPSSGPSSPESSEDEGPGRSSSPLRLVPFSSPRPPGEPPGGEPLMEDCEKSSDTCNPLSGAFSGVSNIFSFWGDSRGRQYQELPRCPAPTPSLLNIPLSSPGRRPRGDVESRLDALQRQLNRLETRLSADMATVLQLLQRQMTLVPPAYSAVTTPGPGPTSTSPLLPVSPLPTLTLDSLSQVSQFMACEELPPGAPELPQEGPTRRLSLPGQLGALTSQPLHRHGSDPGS

COc1ccccc1OCC(O)CN1CCN(CC(=O)Nc2c(C)cccc2C)CC1 (stereo not drawn) [Ranolazine]
Cmax [1, 32]: 1950 nM

CC(C)NCC(O)c1ccc(NS(C)(=O)=O)cc1 (stereo not drawn) [Sotalol]
Cmax [1, 32]: 14700 nM

CC(C)(C)c1ccc(C(O)CCCN2CCC(C(O)(c3ccccc3)c3ccccc3)CC2)cc1 (stereo not drawn) [Terfenadine]
Cmax [1, 32]: 4 nM

CCN(CC)CCCC(C)Nc1ccnc2cc(Cl)ccc12 (stereo not drawn) [chloroquine]
Hill coefficient nH, hERG inhibition [2]: 1.25
IC50 [3]: 39.3 µM
INa peak Hill coefficient nH [3]: 0.97
IC50 [4]: > 100 µM
effect on plateau IKs level [4]: only slightly inhibited
IC50 [5]: 45 µM
inhibition at 5 µM ([5]; read-out: peak INa average inhibition): 10%
activity at 5 µM [5, 33]: 90 ± 12%
IC50 [6]: 30.7 µM
activity at 5 µM [6, 34]: 86 ± 9%
activity at 5 µM [7]: 37.2%
potency estimated from few doses [7]: 2.96 µM
peak IKr % inhibition [8]: 62.78 ± 11.12%
IC50 [9]: > 162 µM
Cmax ([1]; Table 2 ref Borsini et al. (2012)): 410 nM
Cmax, maximal free plasma therapeutic concentration ([1]; usual doses ref Borsini et al., 2012): 0.41 µM
IC50 ([10]; HEK293, RT ref Borsini et al. (2012)): 0.96 µM
IC50 ([10]; HEK293, RT ref Traebert et al. (2004)): 2.5 µM
IC50 ([11]; CHO ref Jordaan et al. (2021)): 7.77 µM
IC50 [11, 35]: 1.03 µM
IC50 [11, 36]: 1.47 µM
IC50 [12]: 8.4 µM
IKs % block ([13]; 10 μM): 8%
IC50 ([13]; read-out: IKs IC50): 115 µM
IC50 [14]: 1.2 µM
IC50 [15]: 8.48 µM
IC50 [16]: 12.2 µM
INa peak % block ([17]; 30 μM): 42.6%
IC50 ([17]; read-out: INa peak IC50): 40.4 µM
IC50 [18]: 14 µM
IC50 ([19]; PT ref Delaunois et al. (2021)): 11.6 µM
IC50 ([19]; RT ref Delaunois et al. (2021)): 109 µM
IC50 [20]: 3.05 µM
IC50 [21]: 17.9 µM
IC50 [22]: 21.2 µM
IC50 [23]: 4600 µM
IC50 [24, 37]: 228 µM
INa peak Hill coefficient nH [25]: 0.98
IC50 [25]: 159 µM
INa late Hill coefficient nH [26]: 0.85
IC50 [26]: 30.4 µM
Hill coefficient nH, hERG inhibition [27]: 0.90
potency estimated from few doses [28]: 5.86 µM
Hill coefficient nH, hERG inhibition [29]: 1.36

CCN(CCO)CCCC(C)Nc1ccnc2cc(Cl)ccc12 (stereo not drawn) [hydroxychloroquine]
IC50 [3]: 42.4 µM
INa peak Hill coefficient nH [3]: 1.02
IC50 [4]: > 100 µM
effect on plateau IKs level [4]: only slightly inhibited
IC50 [5]: 52.5 µM
activity at 10 µM [5, 33]: 84 ± 16%
IC50 [6]: 90 µM
activity at 10 µM [6, 34]: 90 ± 12%
IC50 [9]: > 990 µM
Cmax ([1]; Table 2 ref Yao et al. (2020)): 495 nM
Cmax, maximal free plasma therapeutic concentration ([1]; usual doses ref Yao et al., 2020): 0.495 μM and 215 ng/ml
Cmax, maximal free plasma therapeutic concentration ([1]; usual doses ref Yao et al., 2020, listed as Hydroxychloroquine): 0.495 μM and 215 ng/ml
IC50 ([11]; CHO ref Jordaan et al. (2021)): 9.7 µM
IC50 [11, 35]: 2.66 µM
IC50 [11, 36]: 3.78 µM
IC50 ([11]; CHO, RT ref Delaunois et al. (2021)): 6.97 µM
IKr % block [30, 38]: 35%
IC50 ([30]; read-out: IKr IC50, guinea pig SAN cells, PT ref Capel et al. (2015)): 5.6 µM
IC50 [15]: > 300 µM
IC50 [18]: 17 µM
IC50 ([19]; PT ref Delaunois et al. (2021)): 21.4 µM
IC50 ([19]; RT ref Delaunois et al. (2021)): 92.9 µM
IC50 [20]: 7.64 µM
IC50 [21]: 66.3 µM
ICaL % block [31, 38]: 12%
IC50 ([31]; read-out: ICaL IC50, guinea pig SAN cells, PT ref Capel et al. (2015)): 22 µM
IC50 ([24]; HEK293, PT ref Delaunois et al. (2021)): > 300 µM
IC50 [24, 37]: 372 µM
INa peak Hill coefficient nH [25]: 0.81
IC50 [25]: 96.2 µM
INa late Hill coefficient nH [26]: 0.89
IC50 [26]: 64.9 µM
IC50 [27]: 4.79 µM
Hill coefficient nH, hERG inhibition [27]: 0.85
potency estimated from few doses [28]: 29.3 µM
IC50 [29]: 3.42 µM
Hill coefficient nH, hERG inhibition [29]: 1.02
